Test results: ChEMBL document CHEMBL4706659, “Design, synthesis and biological evaluation of novel 2,4-diaryl pyrimidine derivatives as selective EGFR inhibitors” (Eur J Med Chem, 2021)

Tests used:
NCI-H1975 [1] = assay: Induction of apoptosis in human NCI-H1975 cells harboring EGFR T790M/L858R mutant assessed as late apoptotic cells at 10 nM measured after 72 hrs by Annexin-V-FITC/propidium iodide staining based flow cytometry (reference value: 0.13%); type: functional
[2] = MRT in Sprague-Dawley rat at 2 mg/kg, iv administered as single dose; type: ADME, organism-based; conditions: in vivo
NCI-H1975 [3] = assay: Induction of apoptosis in human NCI-H1975 cells harboring EGFR T790M/L858R mutant assessed as viable cells at 1 nM measured after 48 hrs by Annexin-V-FITC/propidium iodide staining based flow cytometry (reference value: 98.63%); type: functional; conditions: read-out: Activity
NCI-H1975 [4] = assay: Induction of apoptosis in human NCI-H1975 cells harboring EGFR T790M/L858R mutant assessed as early apoptotic cells at 1 nM measured after 48 hrs by Annexin-V-FITC/propidium iodide staining based flow cytometry (reference value: 0.82%); type: functional
NCI-H1975 [5] = assay: Induction of mitochondrial membrane potential loss in human NCI-H1975 cells harboring EGFR T790M/L858R mutant assessed as cell population with mitochondrial membrane potential collapse at 1 nM measured after 24 hrs by JC1 staining based fluorescence microscopic analysis (reference value: 5.49%); type: functional
NCI-H1975 [6] = assay: Induction of apoptosis in human NCI-H1975 cells harboring EGFR T790M/L858R mutant assessed as viable cells at 10 nM measured after 48 hrs by Annexin-V-FITC/propidium iodide staining based flow cytometry (reference value: 98.63%); type: functional; conditions: read-out: Activity
[7] = Oral bioavailability in Sprague-Dawley rat at 10 mg/kg administered as single dose; type: ADME, organism-based; conditions: in vivo
NCI-H1975 [8] = assay: Induction of apoptosis in human NCI-H1975 cells harboring EGFR T790M/L858R mutant assessed as late apoptotic cells at 5 nM measured after 48 hrs by Annexin-V-FITC/propidium iodide staining based flow cytometry (reference value: 0.04%); type: functional
NCI-H1975 [9] = assay: Antimigratory activity against human NCI-H1975 cells harboring EGFR T790M/L858R mutant assessed as inhibition of cell migration at 3 nM measured after 24 hrs by phase contrast microscopic analysis relative to control; type: functional
[10] = Toxicity in nude mouse xenografted with human NCI-H1975 cells harboring EGFR T790M/L858R mutant assessed as body weight loss at 15 mg/kg, po administered once daily for 7 days relative to control; type: organism-based; conditions: in vivo, 168 h, time 7 day
NCI-H1975 [11] = assay: Induction of apoptosis in human NCI-H1975 cells harboring EGFR T790M/L858R mutant assessed as early apoptotic cells at 10 nM measured after 72 hrs by Annexin-V-FITC/propidium iodide staining based flow cytometry (reference value: 0.72%); type: functional
NCI-H1975 [12] = assay: Induction of mitochondrial membrane potential loss in human NCI-H1975 cells harboring EGFR T790M/L858R mutant assessed as cells with intact mitochondrial membrane potential at 5 nM measured after 24 hrs by JC1 staining based fluorescence microscopic analysis (reference value: 94.51%); type: functional
[13] = Selectivity ratio of IC50 for HEK293-A cells to IC50 for antiproliferative activity against human NCI-H1975 cells; type: toxicity, cell-based; conditions: HEK293-A cells versus NCI-H1975 cells, read-out: Ratio IC50
NCI-H1975 [14] = assay: Induction of apoptosis in human NCI-H1975 cells harboring EGFR T790M/L858R mutant assessed as necrotic cells at 5 nM measured after 48 hrs by Annexin-V-FITC/propidium iodide staining based flow cytometry (reference value: […]); type: functional
[15] = Half life in Sprague-Dawley rat at 2 mg/kg, iv administered as single dose; type: ADME, organism-based; conditions: in vivo
[16] = molecular target: Epidermal growth factor receptor (Homo sapiens, UniProt P00533, L858R); assay: Inhibition of human recombinant GST-tagged EGFR L858R mutant expressed in baculovirus expression system using tyrosine 4 peptide as substrate after 60 mins in presence of ATP FRET based Z'-LYTE assay
Epidermal growth factor receptor (Homo sapiens, UniProt P00533, L858R), sequence (P00533 25-1210 L858R limits assumed): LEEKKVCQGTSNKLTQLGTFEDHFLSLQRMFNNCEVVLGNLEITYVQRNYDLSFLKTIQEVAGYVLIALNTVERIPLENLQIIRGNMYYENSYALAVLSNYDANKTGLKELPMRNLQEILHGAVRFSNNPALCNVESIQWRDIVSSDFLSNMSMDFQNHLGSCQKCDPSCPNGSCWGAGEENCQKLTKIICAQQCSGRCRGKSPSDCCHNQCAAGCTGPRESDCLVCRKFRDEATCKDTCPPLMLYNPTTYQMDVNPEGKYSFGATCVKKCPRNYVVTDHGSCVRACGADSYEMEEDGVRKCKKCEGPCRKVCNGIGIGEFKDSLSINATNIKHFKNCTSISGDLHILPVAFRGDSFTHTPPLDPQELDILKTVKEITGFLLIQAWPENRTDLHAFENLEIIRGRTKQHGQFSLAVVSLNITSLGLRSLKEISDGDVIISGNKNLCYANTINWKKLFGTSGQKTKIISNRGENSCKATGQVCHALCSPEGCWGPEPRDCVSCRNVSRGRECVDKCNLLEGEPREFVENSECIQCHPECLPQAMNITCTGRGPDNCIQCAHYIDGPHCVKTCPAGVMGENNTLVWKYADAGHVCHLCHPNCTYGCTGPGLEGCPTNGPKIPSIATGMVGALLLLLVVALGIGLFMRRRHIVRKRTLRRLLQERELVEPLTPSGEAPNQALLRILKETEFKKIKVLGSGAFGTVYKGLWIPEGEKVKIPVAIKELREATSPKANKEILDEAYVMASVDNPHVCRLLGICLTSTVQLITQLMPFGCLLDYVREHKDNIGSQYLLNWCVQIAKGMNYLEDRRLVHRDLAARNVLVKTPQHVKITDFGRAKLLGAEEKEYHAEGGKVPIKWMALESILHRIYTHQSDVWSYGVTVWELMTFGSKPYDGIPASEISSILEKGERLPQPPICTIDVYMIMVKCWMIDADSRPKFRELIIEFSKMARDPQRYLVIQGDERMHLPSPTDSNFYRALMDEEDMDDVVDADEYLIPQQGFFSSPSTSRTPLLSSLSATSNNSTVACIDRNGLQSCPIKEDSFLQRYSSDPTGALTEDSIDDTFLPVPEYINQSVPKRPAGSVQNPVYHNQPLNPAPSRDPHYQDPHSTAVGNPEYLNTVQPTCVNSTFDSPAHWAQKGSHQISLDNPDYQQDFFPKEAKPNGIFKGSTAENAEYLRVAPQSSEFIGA

[17] = MRT in Sprague-Dawley rat at 10 mg/kg, po administered as single dose; type: ADME, organism-based; conditions: in vivo
[18] = Selectivity ratio of IC50 for antiproliferative activity against human NCI-H292 cells harboring wild-type EGFR to IC50 for antiproliferative activity against human NCI-H1975 cells harboring EGFR T790M/L858R mutant; type: functional
NCI-H1975 [19] = assay: Induction of apoptosis in human NCI-H1975 cells harboring EGFR T790M/L858R mutant assessed as necrotic cells at 10 nM measured after 48 hrs by Annexin-V-FITC/propidium iodide staining based flow cytometry (reference value: […]); type: functional
NCI-H1975 [20] = assay: Antimigratory activity against human NCI-H1975 cells harboring EGFR T790M/L858R mutant assessed as inhibition of cell migration at 9 nM measured after 24 hrs by phase contrast microscopic analysis relative to control; type: functional
NCI-H1975 [21] = assay: Induction of mitochondrial membrane potential loss in human NCI-H1975 cells harboring EGFR T790M/L858R mutant assessed as cells with intact mitochondrial membrane potential at 1 nM measured after 24 hrs by JC1 staining based fluorescence microscopic analysis (reference value: 94.51%); type: functional
[22] = AUC (0 to infinity) in Sprague-Dawley rat at 2 mg/kg, iv administered as single dose; type: ADME, organism-based; design: route intravenous, time infinity, dose 2 mg/kg; conditions: in vivo
NCI-H1975 [23] = assay: Induction of apoptosis in human NCI-H1975 cells harboring EGFR T790M/L858R mutant assessed as necrotic cells at 1 nM measured after 48 hrs by Annexin-V-FITC/propidium iodide staining based flow cytometry (reference value: […]); type: functional
[24] = Selectivity ratio of IC50 for HLF cells to IC50 for antiproliferative activity against human NCI-H1975 cells
NCI-H1975 [25] = assay: Induction of apoptosis in human NCI-H1975 cells harboring EGFR T790M/L858R mutant assessed as viable cells at 5 nM measured after 72 hrs by Annexin-V-FITC/propidium iodide staining based flow cytometry (reference value: 98.66%); type: functional; conditions: read-out: Activity
NCI-H1975 [26] = assay: Induction of apoptosis in human NCI-H1975 cells harboring EGFR T790M/L858R mutant assessed as late apoptotic cells at 1 nM measured after 72 hrs by Annexin-V-FITC/propidium iodide staining based flow cytometry (reference value: 0.13%); type: functional
NCI-H1975 [27] = assay: Induction of mitochondrial membrane potential loss in human NCI-H1975 cells harboring EGFR T790M/L858R mutant measured after 24 hrs by JC1 staining based fluorescence microscopic analysis; type: functional, cell-based; conditions: dose 1-10 nM
[28] = Cytotoxicity against HLF cells assessed as reduction in cell viability by MTT assay; type: cell-based; conditions: Homo sapiens
[29] = Cmax in Sprague-Dawley rat at 2 mg/kg, iv administered as single dose; type: ADME, organism-based; design: route intravenous, dose 2 mg/kg; conditions: in vivo
[30] = AUC (0 to infinity) in Sprague-Dawley rat at 10 mg/kg, po administered as single dose; type: ADME, organism-based; design: time infinity, route oral, dose 10 mg/kg; conditions: in vivo
[31] = molecular target: Epidermal growth factor receptor (Homo sapiens, UniProt P00533); assay: Inhibition of recombinant human GST-tagged EGFR expressed in baculovirus expression system using tyr-04 peptide as substrate incubated for 60 mins in presence of ATP by Z'-LYTE assay
Epidermal growth factor receptor (Homo sapiens, UniProt P00533), sequence (P00533 whole entry): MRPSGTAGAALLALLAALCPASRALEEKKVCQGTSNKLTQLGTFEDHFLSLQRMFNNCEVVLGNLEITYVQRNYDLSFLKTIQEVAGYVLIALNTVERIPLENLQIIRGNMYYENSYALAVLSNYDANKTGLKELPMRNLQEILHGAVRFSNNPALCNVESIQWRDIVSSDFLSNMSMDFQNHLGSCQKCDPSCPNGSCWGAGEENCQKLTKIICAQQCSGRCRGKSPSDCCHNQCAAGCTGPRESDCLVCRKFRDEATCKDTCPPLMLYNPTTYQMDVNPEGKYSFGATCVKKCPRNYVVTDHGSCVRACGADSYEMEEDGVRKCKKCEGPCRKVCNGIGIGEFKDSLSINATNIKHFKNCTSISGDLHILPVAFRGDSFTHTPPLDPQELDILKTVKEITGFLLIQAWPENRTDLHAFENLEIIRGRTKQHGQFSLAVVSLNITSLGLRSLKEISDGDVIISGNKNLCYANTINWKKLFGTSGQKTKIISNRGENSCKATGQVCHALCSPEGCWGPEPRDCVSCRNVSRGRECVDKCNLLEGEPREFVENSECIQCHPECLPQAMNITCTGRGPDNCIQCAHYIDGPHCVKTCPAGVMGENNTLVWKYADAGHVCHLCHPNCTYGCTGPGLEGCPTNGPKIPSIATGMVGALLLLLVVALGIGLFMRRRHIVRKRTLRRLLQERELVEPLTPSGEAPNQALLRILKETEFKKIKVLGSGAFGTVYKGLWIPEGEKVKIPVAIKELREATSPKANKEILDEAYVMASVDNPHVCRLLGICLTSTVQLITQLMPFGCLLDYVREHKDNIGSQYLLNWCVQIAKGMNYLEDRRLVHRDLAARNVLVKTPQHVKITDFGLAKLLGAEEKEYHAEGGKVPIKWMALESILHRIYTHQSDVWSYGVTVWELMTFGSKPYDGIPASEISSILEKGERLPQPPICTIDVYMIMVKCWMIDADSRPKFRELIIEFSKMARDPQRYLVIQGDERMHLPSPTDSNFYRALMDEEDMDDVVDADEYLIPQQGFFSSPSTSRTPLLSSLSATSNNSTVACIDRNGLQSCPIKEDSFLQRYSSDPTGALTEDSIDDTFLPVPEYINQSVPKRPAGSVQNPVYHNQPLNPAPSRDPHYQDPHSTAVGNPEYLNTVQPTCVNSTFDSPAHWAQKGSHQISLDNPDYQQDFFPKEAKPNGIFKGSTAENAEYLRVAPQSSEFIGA

NCI-H1975 [32] = assay: Induction of apoptosis in human NCI-H1975 cells harboring EGFR T790M/L858R mutant assessed as late apoptotic cells at 10 nM measured after 48 hrs by Annexin-V-FITC/propidium iodide staining based flow cytometry (reference value: 0.04%); type: functional

Question: With C=CC(=O)Nc1cc(Nc2nccc(-c3cn(C4CC4)c4ccccc34)n2)c(OC)cc1[S+]([O-])CCN(C)C (configuration not stated) as the compound, how does the Activity (NCI-H1975 [1]) read?
Answer: The Activity was 22.53%.

Question: What about the MRT [2] of the same compound?
Answer: Its MRT is 1.01 h.

Question: And the viability at 0.001 µM (NCI-H1975 [3])?
Answer: The viability at 0.001 µM was 82%.

Question: What about the Activity (NCI-H1975 [4]) of the same compound?
Answer: The Activity was 10.89%.

Question: What about the Activity (NCI-H1975 [5]) of the same compound?
Answer: Its Activity is 19.29%.

Question: And the viability at 0.01 µM (NCI-H1975 [6])?
Answer: Its viability at 0.01 µM is 41.1%.

Question: And the bioavailability [7]?
Answer: The bioavailability was 40.4%.

Question: And the Activity (NCI-H1975 [8])?
Answer: Its Activity is 3.64%.

Question: And the inhibition at 0.003 µM (NCI-H1975 [9])?
Answer: Its inhibition at 0.003 µM is 39%.

Question: And the Activity [10]?
Answer: The Activity was < 5%.

Question: What about the Activity (NCI-H1975 [11]) of the same compound?
Answer: The Activity was 44.72%.

Question: What about the Activity (NCI-H1975 [12]) of the same compound?
Answer: The Activity was 72.38%.

Question: And the selectivity ratio [13]?
Answer: The selectivity ratio was 383.

Question: What about the Activity (NCI-H1975 [14]) of the same compound?
Answer: The Activity was 7.42%.

Question: What about the half-life [15] of the same compound?
Answer: The half-life was 0.7 h.

Question: And the IC50 [16]?
Answer: Its IC50 is 1.1 nM.

Question: And the MRT [17]?
Answer: Its MRT is 3.61 h.

Question: What about the “Ratio IC50” value [18] of the same compound?
Answer: The value was 89.8.

Question: What about the Activity (NCI-H1975 [19]) of the same compound?
Answer: The Activity was 21.2%.

Question: And the inhibition at 0.009 µM (NCI-H1975 [20])?
Answer: Its inhibition at 0.009 µM is 47%.

Question: What about the Activity (NCI-H1975 [21]) of the same compound?
Answer: The Activity was 80.71%.

Question: What about the AUC(0-inf) [22] of the same compound?
Answer: The AUC(0-inf) was 340 ng·h/mL.

Question: And the Activity (NCI-H1975 [23])?
Answer: The Activity was 5.52%.

Question: And the “Ratio IC50” value [24]?
Answer: Its value is 755.

Question: What about the viability at 0.005 µM (NCI-H1975 [25]) of the same compound?
Answer: The viability at 0.005 µM was 52.5%.

Question: What about the Activity (NCI-H1975 [26]) of the same compound?
Answer: Its Activity is 2.93%.

Question: What about the Activity (NCI-H1975 [27]) of the same compound?
Answer: Its Activity is “Dose-dependent effect”.

Question: What about the IC50 [28] of the same compound?
Answer: The IC50 was 6040 nM.

Question: What about the Cmax [29] of the same compound?
Answer: Its Cmax is 503 ng/mL.

Question: And the AUC(0-inf) [30]?
Answer: Its AUC(0-inf) is 722 ng·h/mL.

Question: And the IC50 [31]?
Answer: The IC50 was 4.1 nM.

Question: And the Activity (NCI-H1975 [32])?
Answer: The Activity was 21.25%.
